CS(=O)(=O)OCCCCOS(C)(=O)=O
solubility (mole fraction)
Conditions	278.15 K	283.15 K	288.15 K	293.15 K	298.15 K	303.15 K	308.15 K	313.15 K	318.15 K	323.15 K
in 2-butoxyethanol	0.000161	0.000208	0.000261	0.000332	0.000417	0.000522	0.00066	0.000811	0.00102	0.00124
in 2-ethoxyethanol	0.000166	0.000255	0.000389	0.000587	0.000857	0.00128	0.00179	0.00259	0.00367	0.00511
in 2-methoxyethanol	0.000446	0.000675	0.00104	0.00149	0.0022	0.00311	0.00438	0.00609	0.0085	0.0118
in 2-propoxyethanol	0.000168	0.000221	0.00031	0.000398	0.00053	0.000693	0.000905	0.00118	0.00155	0.00196
in DMF	0.0116	0.0151	0.0194	0.0248	0.0317	0.0397	0.0495	0.0611	0.076	0.0929
in DMSO	–	–	–	–	0.0367	0.0459	0.0567	0.0695	0.0851	0.103
in NMP	0.0172	0.0215	0.0266	0.0328	0.0401	0.0487	0.059	0.0713	0.0853	0.102
in ethanol	1.55e-05	2.49e-05	3.95e-05	6.08e-05	9.34e-05	0.000142	0.000211	0.000315	0.00046	0.000655
in ethyl acetate	0.000385	0.000575	0.00081	0.00112	0.0016	0.00209	0.00287	0.0038	0.00525	0.00705
in methanol	4.32e-05	6.97e-05	0.000107	0.000167	0.000251	0.000379	0.000555	0.000813	0.00119	0.00169
in methyl acetate	0.000892	0.00109	0.00179	0.00248	0.00323	0.0045	0.00592	0.008	0.0107	0.0145
in n-butanol	6.8e-06	1.09e-05	1.72e-05	2.66e-05	4.22e-05	6.35e-05	9.25e-05	0.000135	0.000191	0.000276
in n-butyl acetate	0.000209	0.000289	0.000402	0.000549	0.000785	0.000962	0.00122	0.00175	0.00218	0.00281
in n-propanol	4.5e-06	8e-06	1.43e-05	2.4e-05	4.05e-05	6.68e-05	0.000107	0.000173	0.000277	0.000444
in n-propyl acetate	0.00016	0.000298	0.000468	0.000649	0.00101	0.00137	0.00195	0.00272	0.00386	0.00531

From BigSolDB 2.1
